# Experimental data reported in patent US12629383B2, “Cannabinoid compositions with high solubility and bioavailability” (priority 2020, dated 2026).
# Where two headings read alike, the source gives them in different places.
# Columns and labels:
# [1] = Animal study (pharmacokinetics), gavage, CBD blood concentration by HPLC; type: in vivo; details: rat
# Description: According to the results of the dissolution study, compositions were prepared by adhering to the ratios of the present invention.
# 6 rats weighing 250+/−20 grams were used per each study group and a total of 5 groups were used. The compositions were administered by gavage at the human dose equivalent of 40 mg CBD per composition.
# The results were analyzed by blood draws at each of the time points over an 8 hour period. An HPLC system was used to determine the blood concentration of CBD at the specified time points. The blood concentrations were given as (μg/mL)
# The average CBD blood concentration of the groups were used to determine the pharmacokinetic parameters of Cmax, AUC and Tmax.
# [2] = Dissolution study, USP type II apparatus, HPLC quantification of CBD released; type: physicochemical; details: 900 ml pH 6.8 phosphate buffer
# Description: Dissolution study was performed in 900 ml volume with a USP type II apparatus at pH 6.8 phosphate buffer. HPLC analysis (as per below) was used to quantify the amount of CBD released at each time point.
# • Method: High Performance Liquid Chromatography (HPLC); Shimadzu LC-2040 3D Nexera-i • Wave lenght: 220 nm • Column 100 mm*4.6 mm; 5 μm C18 (InertSustain) • Column Temperature: 25° C. • AutoSampler Temperature: 5° C. • Injection Volume: 5 μL • Flow rate: 1.0 mL/min • Mobile Phase: Methanol:Water (85:[…]) • Diluent: Methanol • Run Time: Cannabidiol=3.7 min
smiles,measurement,setting,value
"C=C(C)[C@@H]1CCC(C)=C[C@H]1c1c(O)cc(CCCCC)cc1O [CBD API, Cannabidiol]",concentration at 0 h,"[1]; blood, oral, 40 mg CBD (human dose equivalent), hour 0, rats, human dose equivalent of 40 mg CBD, group average",0 ng/mL
same,concentration at […],"[1]; blood, oral, 40 mg CBD (human dose equivalent), hour 0.083, rats, human dose equivalent of 40 mg CBD, group average",8 ng/mL
same,concentration at 0.25 h,"[1]; blood, oral, 40 mg CBD (human dose equivalent), hour 0.25, rats, human dose equivalent of 40 mg CBD, group average",11 ng/mL
same,concentration at 0.5 h,"[1]; blood, oral, 40 mg CBD (human dose equivalent), hour 0.5, rats, human dose equivalent of 40 mg CBD, group average",15 ng/mL
same,concentration at 1 h,"[1]; blood, oral, 40 mg CBD (human dose equivalent), hour 1, rats, human dose equivalent of 40 mg CBD, group average",13 ng/mL
same,concentration at 2 h,"[1]; blood, oral, 40 mg CBD (human dose equivalent), hour 2, rats, human dose equivalent of 40 mg CBD, group average",11 ng/mL
same,concentration at 4 h,"[1]; blood, oral, 40 mg CBD (human dose equivalent), hour 4, rats, human dose equivalent of 40 mg CBD, group average",8 ng/mL
same,concentration at 8 h,"[1]; blood, oral, 40 mg CBD (human dose equivalent), hour 8, rats, human dose equivalent of 40 mg CBD, group average",6 ng/mL
same,Tmax,"[1]; blood, po, 40 mg CBD (human dose equivalent), rats, read-out: Tmax after administration (converted)",30 min
same,AUC(0-t),"[1]; blood, po, rats, human dose equivalent of 40 mg CBD",71 ng·h/mL
same,Tmax,"[1]; blood, po, rats, human dose equivalent of 40 mg CBD, read-out: Tmax",30 min
same,Cmax,"[1]; po, rats, human dose equivalent of 40 mg CBD, from average blood concentration",15 ng/mL
same,% CBD API Released,[2]; 5 min,"1,89%"
same,% CBD API Released,[2]; 10 min,"1,89%"
same,% CBD API Released,[2]; 15 min,"2,05%"
same,% CBD API Released,[2]; 30 min,2%
same,% CBD API Released,[2]; 60 min,"2,01%"
same,% CBD API Released,[2]; 120 min,"1,97%"
same,% CBD API Released,[2]; 180 min,"2,2%"
same,% CBD API Released,[2]; 240 min,"2,32%"
